Assay results reported in patent publication US20070021509A1, “Phosphate transport inhibitors” (priority 2001, published 2007).

Key:
[1] = test system: sodium-dependent phosphate uptake into isolated rabbit intestinal rings; assay: Ex vivo 33P uptake into isolated rabbit intestinal rings; format: cell-based; parameters: concentration or dose not given beside the values; conditions: Table 14, 15-minute incubation
Description: For the ex vivo assay, ^33P uptake into isolated rabbit intestinal rings was measured using a modification of the method described by Crane and Mandelstam [Robert K. Crane and Paul Mandelstam “The active transport of sugars by various preparations of hamster intestine” Biochim. Biophys. Acta 45: 460-476, 1960; the contents of which are incorporated herein by reference]. Male New Zealand rabbits 2-3 kg in weight were aeuthinized by an i.v. injection of Fatal Pluse®. A midline laparotomy was performed and the duodenum from the pyloric junction to the ligament of Trietz isolated and excised. Segments of bowel were everted, cut into 2-4 mm ring-like pieces and placed into a modified Hepes-Buffered Ringer's solution in which Na^+ had been iso-osmotically replaced with N-methyl-D-glucamine. To measure phosphate uptake, six rings were incubated in a 50 ml conical tube containing a 10 ml volume of Ringer's solution, with or without Na^+, bubbled with 100% O2 and maintained at 37° C. 0.5 uCi/ml ^33P was then incubated with the rings for a 15-minute period, the tissue harvested, rinsed, blotted dry and weighed. Tissues were then solublized by digesting them in a 5 ml volume of Solvable® tissue solubilizer overnight at 50° C. and ^33P levels determined by scintillation counting. Sodium-dependent uptake of ^33P was calculated by determining the difference in uptake between rings incubated in the presence and absence of Na^+ in the Hepes-Buffered Ringer's solution. Results are reported as the percentage inhibition of phosphate and glucose uptake, respectively.

[2] = test system: glucose uptake into isolated rabbit intestinal rings; assay: Ex vivo glucose uptake into isolated rabbit intestinal rings; format: cell-based; parameters: concentration or dose not given beside the values; conditions: Table 14
Description: For the ex vivo assay, ^33P uptake into isolated rabbit intestinal rings was measured using a modification of the method described by Crane and Mandelstam [Robert K. Crane and Paul Mandelstam “The active transport of sugars by various preparations of hamster intestine” Biochim. Biophys. Acta 45: 460-476, 1960; the contents of which are incorporated herein by reference]. Male New Zealand rabbits 2-3 kg in weight were aeuthinized by an i.v. injection of Fatal Pluse®. A midline laparotomy was performed and the duodenum from the pyloric junction to the ligament of Trietz isolated and excised. Segments of bowel were everted, cut into 2-4 mm ring-like pieces and placed into a modified Hepes-Buffered Ringer's solution in which Na^+ had been iso-osmotically replaced with N-methyl-D-glucamine. […] […] Tissues were then solublized by digesting them in a 5 ml volume of Solvable® tissue solubilizer overnight at 50° C. and ^33P levels determined by scintillation counting. Sodium-dependent uptake of ^33P was calculated by determining the difference in uptake between rings incubated in the presence and absence of Na^+ in the Hepes-Buffered Ringer's solution. Results are reported as the percentage inhibition of phosphate and glucose uptake, respectively.

SMILES: O=C(NCc1ccccc1OC(F)(F)F)c1cc(Br)ccc1NS(=O)(=O)c1ccc(Cl)cc1 [Example 72, 5-Bromo-2-(4-chloro-benzenesulfonylamino)-N-(2-trifluoromethoxy-benzyl)-benzamide]
- % Phosphate Transport Inhibition [1]: 24%
- % Glucose Transport Inhibition [2]: 6%

SMILES: COc1ccccc1CNC(=O)c1cc(Br)ccc1NS(=O)(=O)c1ccc(C(F)(F)F)cc1[N+](=O)[O-] [Example 80, 5-Bromo-N-(2-methoxy-benzyl)-2-(4-trifluoromethyl-2-nitro-benzenesulfonylamino)-benzamide]
- % Phosphate Transport Inhibition [1]: 43%
- % Glucose Transport Inhibition [2]: 39%

SMILES: O=C(Nc1ccc(Br)cc1)c1cccc(C(F)(F)F)c1 [Example 81, N-(4-Bromo-phenyl)-3-trifluoromethyl-benzamide]
- % Phosphate Transport Inhibition [1]: 22%
- % Glucose Transport Inhibition [2]: 13%
